Experimental data from paper PMC6100073, “Activation of Anthracene Endoperoxides in Leishmania and Impairment of Mitochondrial Functions” (Molecules : A Journal of Synthetic Chemistry and Natural …, 2018).
Like-named read-outs stand apart in the source and are kept apart here. Values belong to the compound of their own block, whether it stands above or below them.

Key:
[1] = tested on: Leishmania tarentolae promastigotes (LtP); test: Resazurin viability assay in Leishmania tarentolae promastigotes; format: cell-based
Method: Leishmania tarentolae promastigotes (LtP) strain P10 from Jena Bioscience (Jena, Germany) were cultivated in brain heart infusion (BHI) medium (37 g/L) that was supplemented with 5 mg/L hemin, 25,000 U/L penicillin and 25 mg/L streptomycin at 26 °C. LtP were always used one day after being passaged, when the cells were in the logarithmic growth phase. The cell count was determined by measuring the optical density (OD) at a wavelength of 600 nm using a U1100 photometer (Hitachi, Tokyo, Japan). The number of the cells was subsequently calculated according to a calibration curve.
LtP (2 × 10^6 cells/mL) in a mixture of YEM and PBS (1:1, v/v) containing 25,000 U/L penicillin, 25 mg/L streptomycin, and 6 µM hemin (YEM/PBS) were prepared. Aliquots of 200 µL of this suspension were distributed in 96-well plates. Control rows containing YEM/PBS (no activity) and with untreated LtP (100% activity) were also loaded on the plate. To the wells of third rows, compounds (leading to a final vehicle concentration of max. 2% dimethyl sulfoxide (DMSO) in the wells) were added. Subsequently, five 1:5 serial dilution steps were performed. The plates were incubated at 26 °C for 48 h. Following the incubation, 50 µL of a resazurin solution in PBS were added to each well, giving a final concentration of 20 µM. After 4 h of incubation, the fluorescence was measured at 560 nm excitation and 590 nm emission using a plate reader (Perkin Elmer Enspire, Germany). The resazurin assays with J774 cells were performed in analogy to the LtP resazurin assays. Aliquots of a J774 cell suspension in DMEM supplemented with 25,000 U/L penicillin, 25 mg/L streptomycin, and 10% FCS (heat-inactivated), giving a final cell concentration of 10^5 cells/mL, were distributed in the wells of the 96-well microplates. The cells were incubated for 24 h (37 °C, 5% CO2) to allow attachment. Then the medium was discarded and non-adherent cells were removed with 200 µL PBS per well. After the addition of DMEM, the compounds were added, and a serial dilution was performed. Control rows with DMEM (no activity) and with untreated J774 cells (100% activity) were also included. The plates were incubated again for 24 h at 37 °C and 5% CO2. Then the addition of resazurin and the measurement of fluorescence were carried out in analogy to the viability assays performed in LtP.
(§1) Calculations were carried out using Microsoft Excel (Microsoft). The graphs were created using Origin 6.1 (OriginLab Corporation, Northampton, MA, USA). The half maximal inhibitory concentrations (IC50) were determined from non-linear concentration–response curves using a four-parameter logistic model and expressed as the mean ± standard deviation (SD). Statistically significant differences of p <0.05 were identified using Students t-test.

[2] = tested on: axenic Leishmania tarentolae amastigotes (axLtA); test: MTT viability assay in axenic Leishmania tarentolae amastigotes; format: cell-based
Method: An aliquot of the original LtP culture broth that was equivalent to 108 × 10^6 cells was centrifuged at 2000× g for 10 min (Sorvall RC26 Plus, rotor: SH-3000, Thermo Fisher Scientific, Waltham, MA, USA). The resulting supernatant was discarded, and the cell pellet was resuspended in 10 mL of Schneider’s medium (adjusted to a pH of 4.5 using HCl; containing 50% FCS, 25,000 U/L penicillin, and 25 mg/L streptomycin). The cell suspension was transferred and cultured in a 50 mL TubeSpin bioreactor at 32 °C. Every 3–4 days, the cells were passaged. Therefore, the cell broth was centrifuged at 2000× g for 10 min, and the supernatant was discarded. The cells were resuspended in fresh medium. During the first 14 days, after the culture was started, the cells transformed from the promastigote to the axenic amastigote state (axLtA). Subsequent to this initial period, the axenic amastigotes were passaged every 3–4 days. To determine cell density of the broth, an aliquot of the suspension, usually 1 mL, was transferred into an Eppendorf tube. The cells were then diluted 1:2 up to 1:40 using PBS, depending on the cell density of the broth. An aliquot of 20 µL of this dilution was further diluted 1:2 with a 2% formaldehyde solution (in PBS). Of this final suspension, 10 µL were transferred to each counting chamber of a standard Neubauer chamber (VWR, Wien, Austria). The cells were incubated for 5 min at 25 °C to let them sediment. Photographs of the counting chambers were taken using a light microscope (Lacerta LIS-5 microscope, Lacerta GmbH, Vienna, Austria) with an attached camera. The photos were obtained at a magnification of 100×. Four photos of every counting chamber were taken, resulting in a total of eight photos. The pictures were then analyzed with the Fiji ImageJ (2.0.0) software (Wayne Rasband, National Institutes of Health (NIH), Bethesda, Maryland (MD), USA). The results were averaged giving the final cell number of the culture broth.
Owing to the acidic conditions needed for axLtA (pH 4.5), viability assays with axLtA were carried out using MTT instead of resazurin that is unstable in an acidic environment. Cell suspensions (200 µL) of axLtA (6 × 10^6 parasites/mL) in Schneider’s medium (pH = 4.5), containing 25,000 U/L penicillin, 25 mg/L streptomycin, and 50% FCS were prepared and distributed in 96-well round-bottom microplates. Then compounds were added (leading to a final vehicle concentration of max. 2% DMSO in the wells). Subsequently, five 1:5 serial dilution steps were performed. Control rows were loaded with 200 µL of either Schneider’s medium or axLtA suspension. After incubation at 32 °C for 48 h, 20 µL of MTT solution (in PBS) were added to each well (1 mM final concentration) and incubated for additional 4 h. Then plates were centrifuged at 400× g for 5 min (Hettich Rotina 420, Tuttlingen, Germany), and the supernatant was discarded. DMSO (100 µL) was added to each well and incubated at 32 °C for 10 min. Then the OD at 570 nm and 630 nm was determined using a plate reader (Perkin Elmer Enspire, Rodgau, Germany).
as §1

[3] = Leishmania tarentolae, 48 h, resazurin assay, endpoint at 48 h, 2 × 10^6 LtP/mL, read-out: IC50 (µM) Mean ± SD LtP
[4] = Leishmania tarentolae, 48 h, pH 4.5, MTT assay, endpoint at 48 h, 6 × 10^6 axLtA/mL, pH 4.5, read-out: IC50 (µM) Mean ± SD axLtA

Structure (SMILES): CC12OOC(c3ccccc31)c1ccccc12 [AcEP1129, 9-methyl-9,10-dihydro-9,10-epidioxidoanthracene]
IC50 [1, 3]: 0.61 ± 0.21 µM
IC50 [2, 4]: 3.29 ± 0.13 µM

Structure (SMILES): O=C1c2ccccc2C(=O)c2ccccc21 [AQ, anthraquinone, reference compound]
IC50 [1, 3]: 103 ± 17.8 µM
IC50 [2, 4]: 369 ± 9.81 µM

Structure (SMILES): c1ccc2cc3ccccc3cc2c1 [Ac, anthracene]
IC50 ([1]; Leishmania tarentolae, 48 h, read-out: IC50 (µM) Mean ± SD LtP, resazurin assay, endpoint at 48 h, 2 × 10^6 LtP/mL): > 400 µM
IC50 ([2]; Leishmania tarentolae, 48 h, pH 4.5, read-out: IC50 (µM) Mean ± SD axLtA, MTT assay, endpoint at 48 h, 6 × 10^6 axLtA/mL, pH 4.5): > 400 µM

More lines, main results first:

IC50 [1, 3]: 0.22 ± 0.09 µM
Structure (SMILES): CCc1ccc2c(c1)C1OOC2c2ccccc21 (stereo not shown) [AcEP1130, 2-ethyl-9,10-dihydro-9,10-epidioxidoanthracene]
IC50 [2, 4]: 15.3 ± 0.31 µM

IC50 [1, 3]: 1 ± 0.73 µM
Structure (SMILES): CC12OOC(C)(c3ccccc31)c1ccccc12 [AcEP1118, 9,10-dimethyl-9,10-dihydro-9,10-epidioxidoanthracene]
IC50 [2, 4]: 6.43 ± 0.4 µM

IC50 [1, 3]: < 1 µM
IC50 ([1]; resazurin assay, endpoint at 48 h, 2 × 10^6 LtP/mL, read-out: IC50 (µM) Mean ± SD LtP): 0.84 ± 0.43 µM
Structure (SMILES): N=C(N)c1ccc(OCCCCCOc2ccc(C(=N)N)cc2)cc1 [Pen, pentamidine, reference compound]
IC50 [2, 4]: < 1 µM
IC50 ([2]; MTT assay, endpoint at 48 h, 6 × 10^6 axLtA/mL, pH 4.5, read-out: IC50 (µM) Mean ± SD axLtA): 0.67 ± 0.31 µM

IC50 [1, 3]: 5.72 ± 1.92 µM
Structure (SMILES): c1ccc2c(c1)C1OOC2c2ccccc21 [AcEP1117, 9,10-dihydro-9,10-epidioxidoanthracene]
IC50 [2, 4]: 56.4 ± 15 µM
